Results published in PMC8129716 (CPT: Pharmacometrics & Systems Pharmacology, 2021).

Experiments:
logP = type: physicochemical; conditions: octanol/water
pKa = type: physicochemical
[1] = human liver microsome intrinsic clearance; type: in vitro ADME; conditions: liver microsomes
CYP2B6 = CYP2B6 induction in vitro; type: in vitro ADME, human
CYP2C8 = CYP2C8 induction in vitro; type: in vitro ADME, human
CYP2C9 [2] = experiment: CYP2C9 induction in vitro; type: in vitro ADME, human
CYP2D6 = CYP2D6 (Homo sapiens, UniProt P10635); experiment: reversible competitive CYP inhibition; type: in vitro ADME; conditions: read-out: Ki CYP2D6; Ki=IC50/2
[3] = human ADME study, single radiolabeled dose 320 mg; type: in vivo
OCT2 = target: T1, OCT2 (Homo sapiens, UniProt O15244); experiment: transporter substrate/inhibitor assessment; type: in vitro ADME
T1 sequence (O15244 1-555): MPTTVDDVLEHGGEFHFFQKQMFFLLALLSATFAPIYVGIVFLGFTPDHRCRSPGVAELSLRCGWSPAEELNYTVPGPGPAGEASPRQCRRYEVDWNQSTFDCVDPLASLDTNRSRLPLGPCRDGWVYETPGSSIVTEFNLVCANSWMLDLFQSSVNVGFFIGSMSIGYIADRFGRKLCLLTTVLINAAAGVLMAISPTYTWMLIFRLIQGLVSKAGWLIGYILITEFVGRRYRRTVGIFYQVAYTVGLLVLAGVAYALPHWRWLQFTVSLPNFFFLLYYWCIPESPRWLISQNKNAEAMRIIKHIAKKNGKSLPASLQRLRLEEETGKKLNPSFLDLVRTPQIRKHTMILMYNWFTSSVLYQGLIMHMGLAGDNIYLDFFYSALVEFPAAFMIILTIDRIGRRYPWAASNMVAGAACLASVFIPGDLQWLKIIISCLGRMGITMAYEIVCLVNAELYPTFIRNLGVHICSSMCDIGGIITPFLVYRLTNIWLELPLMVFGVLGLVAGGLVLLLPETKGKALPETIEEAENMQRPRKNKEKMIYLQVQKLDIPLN

OATP1B1 = target: T2, OATP1B1 (Homo sapiens, UniProt Q9Y6L6); experiment: transporter substrate/inhibitor assessment; type: in vitro ADME
T2 sequence (Q9Y6L6 1-691): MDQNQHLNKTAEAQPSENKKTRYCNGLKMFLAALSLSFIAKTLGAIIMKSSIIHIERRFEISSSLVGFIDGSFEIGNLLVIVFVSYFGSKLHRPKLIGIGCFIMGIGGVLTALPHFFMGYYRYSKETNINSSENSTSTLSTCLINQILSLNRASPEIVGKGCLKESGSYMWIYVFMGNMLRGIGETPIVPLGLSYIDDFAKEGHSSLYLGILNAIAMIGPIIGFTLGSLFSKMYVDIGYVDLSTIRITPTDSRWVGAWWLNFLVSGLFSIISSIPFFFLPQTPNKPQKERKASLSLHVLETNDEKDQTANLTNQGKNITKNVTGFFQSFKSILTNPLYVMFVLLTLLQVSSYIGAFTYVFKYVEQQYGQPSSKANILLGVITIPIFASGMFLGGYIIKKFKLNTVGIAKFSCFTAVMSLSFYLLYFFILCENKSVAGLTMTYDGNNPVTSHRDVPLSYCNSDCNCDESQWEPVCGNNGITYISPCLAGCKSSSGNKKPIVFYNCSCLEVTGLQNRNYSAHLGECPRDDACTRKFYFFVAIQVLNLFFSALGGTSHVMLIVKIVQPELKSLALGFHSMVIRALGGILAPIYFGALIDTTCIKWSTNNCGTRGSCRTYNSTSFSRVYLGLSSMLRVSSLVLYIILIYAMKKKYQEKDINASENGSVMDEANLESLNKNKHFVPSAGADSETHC

OATP1B3 = target: T3, OATP1B3 (Homo sapiens, UniProt Q9NPD5); experiment: transporter substrate/inhibitor assessment; type: in vitro ADME
T3 sequence (Q9NPD5 1-702): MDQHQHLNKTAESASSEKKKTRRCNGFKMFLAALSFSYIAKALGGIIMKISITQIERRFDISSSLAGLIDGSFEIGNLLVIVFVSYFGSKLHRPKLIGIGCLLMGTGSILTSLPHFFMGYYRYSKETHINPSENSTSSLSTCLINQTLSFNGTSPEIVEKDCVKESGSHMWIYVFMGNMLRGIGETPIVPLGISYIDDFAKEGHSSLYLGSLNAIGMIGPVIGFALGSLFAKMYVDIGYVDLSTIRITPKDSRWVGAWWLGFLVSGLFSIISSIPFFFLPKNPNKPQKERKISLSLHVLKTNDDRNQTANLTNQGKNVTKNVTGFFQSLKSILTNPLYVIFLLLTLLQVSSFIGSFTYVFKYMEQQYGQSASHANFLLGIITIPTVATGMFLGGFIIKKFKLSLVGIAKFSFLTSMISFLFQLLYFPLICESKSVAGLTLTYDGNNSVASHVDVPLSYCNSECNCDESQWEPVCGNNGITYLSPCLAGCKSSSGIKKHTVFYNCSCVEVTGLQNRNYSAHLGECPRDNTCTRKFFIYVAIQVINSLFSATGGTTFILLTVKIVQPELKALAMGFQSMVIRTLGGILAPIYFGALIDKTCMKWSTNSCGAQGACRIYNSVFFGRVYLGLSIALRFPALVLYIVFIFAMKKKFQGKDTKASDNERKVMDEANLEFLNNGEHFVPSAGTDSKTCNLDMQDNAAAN

[4] = oral, patients with B-cell malignancies; cited from earlier work
CYP3A = conditions: cited from earlier work
CYP2C9 [5] = conditions: zanubrutinib 320 mg total daily dose, cocktail; cited from earlier work
[6] = single radiolabeled 320 mg, healthy subjects

Chain of CYP2D6 (P10635 whole entry): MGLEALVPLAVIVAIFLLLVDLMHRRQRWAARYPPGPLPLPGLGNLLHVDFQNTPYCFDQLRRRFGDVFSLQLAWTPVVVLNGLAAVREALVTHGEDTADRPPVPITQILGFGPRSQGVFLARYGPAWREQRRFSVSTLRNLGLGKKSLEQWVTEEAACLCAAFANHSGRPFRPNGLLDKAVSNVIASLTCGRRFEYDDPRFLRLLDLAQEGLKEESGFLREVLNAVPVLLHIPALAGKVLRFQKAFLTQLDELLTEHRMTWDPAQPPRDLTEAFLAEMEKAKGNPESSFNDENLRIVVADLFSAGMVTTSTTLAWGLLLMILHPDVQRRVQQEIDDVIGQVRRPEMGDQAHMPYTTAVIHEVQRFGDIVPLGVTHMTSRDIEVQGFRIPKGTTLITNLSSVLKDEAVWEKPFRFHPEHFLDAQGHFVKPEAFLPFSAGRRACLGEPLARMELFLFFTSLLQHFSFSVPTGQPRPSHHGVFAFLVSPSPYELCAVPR

C=CC(=O)N1CCC([C@@H]2CCNc3c(C(N)=O)c(-c4ccc(Oc5ccccc5)cc4)nn32)CC1 [zanubrutinib, Zanubrutinib]
logP (logP): 4.2
pKa (pKa): 3.3
microsomal CLint [1]: 109 µL/min/mg
increase of CYP2B6 mRNA levels (CYP2B6; 0.3 μM): 1.6 fold
increase of CYP2B6 mRNA levels (CYP2B6; 3 μM): 3.6 fold
increase of CYP2B6 mRNA levels (CYP2B6; 30 μM): 2.6 fold
Indmax CYP2B6 (CYP2B6; Emax model): 2.21 fold
EC50 (CYP2B6; human, hepatocytes): 730 nM
R3 (CYP2B6 induction potential) (CYP2B6; per FDA DDI guidance, from in vitro data): 0.55
Ki (CYP2D6): 36400 nM
zanubrutinib absorbed ([3]; inferred from unchanged drug in feces): 60–70%
dose excreted renally as parent drug ([3]; single radiolabeled 320 mg): 0.4 % of the dose
unchanged zanubrutinib in feces ([3]; single radiolabeled 320 mg): 38 % of the dose
dose recovered in feces [3, 6]: approximately 87%
dose recovered in urine [3, 6]: ~8%
substrate or inhibitor of OCT2 (OCT2): not a substrate or inhibitor
substrate or inhibitor of OATP1B1 (OATP1B1): not a substrate or inhibitor
substrate or inhibitor of OATP1B3 (OATP1B3): not a substrate or inhibitor
mean apparent terminal elimination half-life [4]: 2 to 4 h
CYP3A induction in vivo (CYP3A; clinical study BGB-3111-108 with midazolam): weak CYP3A inducer
mean reduction of systemic exposure of CYP3A and CYP2C19 substrates (CYP3A; zanubrutinib 320 mg total daily dose): < 50%
effect on the activity of CYP2C9, BCRP and P-gp (CYP2C9 [5]): minimal or no effect
